The text below walks through data of patent US20250228836A1, “BILASTINE COMPOSITION FOR ONCE-DAILY PARENTERAL ADMINISTRATION” (FAES FARMA, S.A., priority 2022, published 2025).

≈ marks a conversion by molar mass, not a printed value.

For data set [1] the following is noted: pH 5-8; cited from earlier work.
Data set [2] is described as follows: Solubility of bilastine vs. HPβCD concentration and pH. The class given is physicochemical. As to conditions: aqueous HPβCD solution, thermodynamic from solid. As for the experimental part: The concentration of bilastine in the solubility tests was determined by UV/vis spectrophotometer was a Cary® 60 UV-VIS.
The solubility of bilastine was determined at different concentrations of HPβCD and pH values.
The desired amount of HPβCD was dispersed in 40 ml of purified water in a 50 ml flask until complete dissolution and further diluted with water up to a final volume of 50 ml. Each solution was divided into three solutions (15 ml each) and the pH was adjusted with HCl 37% to the desired values (3, 5 or 7, respectively). Each solution was transferred again into three vials (5 mL solution each) in order to have several replicates for each sample. Bilastine was added in excess to each vial and the solutions were kept under magnetic stirring for 24 hours. After that time, the pH was adjusted again and they were kept stirring for another 24 hours. Finally, the samples were filtered through 0.45 μm filters (Biofil®, Nylon membrane, 13 mm Ø), the final pH was checked and the concentration was determined by UV spectrophotometry at a wavelength of 254 nm. The statistical analysis of the results was carried out using the Centurion XVI Statgraphics program version 16.1.15.

By solubility is commonly meant the dissolved amount per volume that the medium holds. High values mean much dissolved substance, low ones little dissolved substance.

Consider `CCOCCn1c(C2CCN(CCc3ccc(C(C)(C)C(=O)O)cc3)CC2)nc2ccccc21` [Bilastine, 2-[4-(2-{4-[1-(2-ethoxyethyl)-1H-benzimidazol-2-yl]-1-piperidinyl}ethyl)phenyl]-2-methylpropanoic acid], for which the “water solubility of bilastine” value in data set [1] is given as “about 0.5 mg/ml”. Further, the solubility at 48 h in data set [2] (aqueous with cosolvent or surfactant or cyclodextrin, Entry 3: HPβCD 30 % w/v, final pH 4.14) is 37.8 mg/mL (≈ 81.5 mM); in data set [2] (aqueous with cosolvent or surfactant or cyclodextrin, Entry 4: HPβCD 20 % w/v, final pH 5.16) it was 18.4 mg/mL (≈ 39.6 mM); in data set [2] (aqueous with cosolvent or surfactant or cyclodextrin, Entry 5: HPβCD 30 % w/v, final pH 5.13), 27.2 mg/mL (≈ 58.7 mM); in data set [2] (aqueous with cosolvent or surfactant or cyclodextrin, Entry 6: HPβCD 30 % w/v, final pH 7.15) it was 16.9 mg/mL (≈ 36.5 mM); in data set [2] (pH 4.6, aqueous with cosolvent or surfactant or cyclodextrin, Entry 2: HPβCD 20 % w/v, final pH 4.60), 35.1 mg/mL (≈ 75.7 mM); in data set [2] (pH 4.7, aqueous with cosolvent or surfactant or cyclodextrin, Entry 1: HPβCD 10 % w/v, final pH 4.70) it was 18.3 mg/mL (≈ 39.4 mM).
